Assay results: BindingDB's records for doi:10.1016/s0960-894x(99)00595-8 (Banyu Tsukuba Research Institute In Collaboration With …, 2000)

target: DNA topoisomerase 2-alpha (Homo sapiens) (UniProt P11388); experiment: In vitro inhibition of Topoisomerase II-mediated DNA cleavage using supercoiled pBR322 plasmid DNA.
Sequence (P11388 whole entry, looked up): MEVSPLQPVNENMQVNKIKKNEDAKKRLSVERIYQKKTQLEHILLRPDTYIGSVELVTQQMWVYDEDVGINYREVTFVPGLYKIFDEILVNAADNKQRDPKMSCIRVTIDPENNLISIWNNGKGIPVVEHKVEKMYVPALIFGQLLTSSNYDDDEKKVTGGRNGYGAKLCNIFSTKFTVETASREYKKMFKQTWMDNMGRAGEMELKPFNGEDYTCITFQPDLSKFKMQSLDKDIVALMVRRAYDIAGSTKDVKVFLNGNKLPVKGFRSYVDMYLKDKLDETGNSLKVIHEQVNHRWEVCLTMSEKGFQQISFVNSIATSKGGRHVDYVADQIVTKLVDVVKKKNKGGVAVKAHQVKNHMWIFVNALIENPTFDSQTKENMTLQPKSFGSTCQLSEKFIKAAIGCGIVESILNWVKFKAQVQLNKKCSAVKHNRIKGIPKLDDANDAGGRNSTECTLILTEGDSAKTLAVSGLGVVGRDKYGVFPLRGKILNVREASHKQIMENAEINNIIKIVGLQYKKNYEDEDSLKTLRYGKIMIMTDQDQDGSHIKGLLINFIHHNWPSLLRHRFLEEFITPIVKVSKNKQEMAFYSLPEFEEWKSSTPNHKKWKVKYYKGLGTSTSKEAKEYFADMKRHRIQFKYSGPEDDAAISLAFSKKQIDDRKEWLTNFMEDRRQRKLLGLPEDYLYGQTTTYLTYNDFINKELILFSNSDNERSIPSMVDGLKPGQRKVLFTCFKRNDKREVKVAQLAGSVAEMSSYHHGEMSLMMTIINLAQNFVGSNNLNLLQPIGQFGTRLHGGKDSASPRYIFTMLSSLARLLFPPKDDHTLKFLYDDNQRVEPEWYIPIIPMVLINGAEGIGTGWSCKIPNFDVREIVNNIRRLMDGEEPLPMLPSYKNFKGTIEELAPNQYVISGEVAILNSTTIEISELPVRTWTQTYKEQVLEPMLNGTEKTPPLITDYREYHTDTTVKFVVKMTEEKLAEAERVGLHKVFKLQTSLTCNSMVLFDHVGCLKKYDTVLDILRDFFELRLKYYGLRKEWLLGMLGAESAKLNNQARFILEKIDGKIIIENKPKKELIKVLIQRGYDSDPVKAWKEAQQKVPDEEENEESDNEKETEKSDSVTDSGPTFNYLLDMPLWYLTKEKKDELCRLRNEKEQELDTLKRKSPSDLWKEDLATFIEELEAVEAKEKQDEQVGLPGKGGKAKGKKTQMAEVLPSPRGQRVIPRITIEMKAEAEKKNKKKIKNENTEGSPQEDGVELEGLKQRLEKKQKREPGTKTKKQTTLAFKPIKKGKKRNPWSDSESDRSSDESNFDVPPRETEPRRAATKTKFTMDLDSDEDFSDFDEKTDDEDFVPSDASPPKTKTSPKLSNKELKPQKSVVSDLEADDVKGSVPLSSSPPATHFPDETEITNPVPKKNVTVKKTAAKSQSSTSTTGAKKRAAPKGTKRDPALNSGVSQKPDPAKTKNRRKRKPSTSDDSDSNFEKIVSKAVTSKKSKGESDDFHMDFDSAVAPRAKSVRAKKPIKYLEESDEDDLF

Row | SMILES | EC50 [µM]
1 | O=C1c2c(c3c4cc(O)cc(O)c4n(C4OC(CO)C(O)C(O)C4O)c3c3[nH]c4c(O)cc(O)cc4c23)C(=O)N1NC(CO)CO (stereo not drawn) [1,3,9,11-tetrahydroxy-6-(2-hydroxy-1-hydroxymethylethylamino)-12-(3,4,5-trihydroxy-6-hydroxymethyltetrahydro-2H-2-pyranyl)-6,7,12,13-tetrahydro-5H-indolo[2,3-a]pyrrolo[3,4-c]carbazole-5,7-dione] | > 50
2 | O=C1c2c(c3c4ccc(O)cc4n(C4OC(CO)C(O)C(O)C4O)c3c3[nH]c4c(O)cc(O)cc4c23)C(=O)N1NC(CO)CO (stereo not drawn) [1,3,10-trihydroxy-6-(2-hydroxy-1-hydroxymethylethylamino)-12-(3,4,5-trihydroxy-6-hydroxymethyltetrahydro-2H-2-pyranyl)-6,7,12,13-tetrahydro-5H-indolo[2,3-a]pyrrolo[3,4-c]carbazole-5,7-dione] | > 50
3 | O=C1c2c(c3c4cc(O)ccc4n(C4OC(CO)C(O)C(O)C4O)c3c3[nH]c4c(O)cccc4c23)C(=O)N1NC(CO)CO (stereo not drawn) [1,9-dihydroxy-6-(2-hydroxy-1-hydroxymethylethylamino)-12-(3,4,5-trihydroxy-6-hydroxymethyltetrahydro-2H-2-pyranyl)-6,7,12,13-tetrahydro-5H-indolo[2,3-a]pyrrolo[3,4-c]carbazole-5,7-dione] | > 50
4 | O=C1c2c(c3c4cccc(O)c4n(C4OC(CO)C(O)C(O)C4O)c3c3[nH]c4ccc(O)cc4c23)C(=O)N1NC(CO)CO (stereo not drawn) [1,9-dihydroxy-6-(2-hydroxy-1-hydroxymethylethylamino)-13-(3,4,5-trihydroxy-6-hydroxymethyltetrahydro-2H-2-pyranyl)-6,7,12,13-tetrahydro-5H-indolo[2,3-a]pyrrolo[3,4-c]carbazole-5,7-dione] | > 50
5 | O=C1c2c(c3c4ccc(O)cc4n(C4OC(CO)C(O)C(O)C4O)c3c3[nH]c4c(O)cccc4c23)C(=O)N1NC(CO)CO (stereo not drawn) [1,10-dihydroxy-6-(2-hydroxy-1-hydroxymethylethylamino)-12-(3,4,5-trihydroxy-6-hydroxymethyltetrahydro-2H-2-pyranyl)-6,7,12,13-tetrahydro-5H-indolo[2,3-a]pyrrolo[3,4-c]carbazole-5,7-dione] | > 50
6 | O=C1c2c(c3c4cccc(O)c4n(C4OC(CO)C(O)C(O)C4O)c3c3[nH]c4cc(O)ccc4c23)C(=O)N1NC(CO)CO (stereo not drawn) [1,10-dihydroxy-6-(2-hydroxy-1-hydroxymethylethylamino)-13-(3,4,5-trihydroxy-6-hydroxymethyltetrahydro-2H-2-pyranyl)-6,7,12,13-tetrahydro-5H-indolo[2,3-a]pyrrolo[3,4-c]carbazole-5,7-dione] | > 50
7 | O=C1c2c(c3c4cccc(O)c4n(C4OC(CO)C(O)C(O)C4O)c3c3[nH]c4c(O)cccc4c23)C(=O)N1NC(CO)CO (stereo not drawn) [1,11-dihydroxy-6-(2-hydroxy-1-hydroxymethylethylamino)-12-(3,4,5-trihydroxy-6-hydroxymethyltetrahydro-2H-2-pyranyl)-6,7,12,13-tetrahydro-5H-indolo[2,3-a]pyrrolo[3,4-c]carbazole-5,7-dione] | > 50
8 | O=C1c2c(c3c4ccccc4n(C4OC(CO)C(O)C(O)C4O)c3c3[nH]c4c(O)cccc4c23)C(=O)N1NC(CO)CO (stereo not drawn) [1-hydroxy-6-(2-hydroxy-1-hydroxymethylethylamino)-12-(3,4,5-trihydroxy-6-hydroxymethyltetrahydro-2H-2-pyranyl)-6,7,12,13-tetrahydro-5H-indolo[2,3-a]pyrrolo[3,4-c]carbazole-5,7-dione] | > 50
9 | O=C1c2c(c3c4cccc(O)c4n(C4OC(CO)C(O)C(O)C4O)c3c3[nH]c4ccccc4c23)C(=O)N1NC(CO)CO (stereo not drawn) [1-hydroxy-6-(2-hydroxy-1-hydroxymethylethylamino)-13-(3,4,5-trihydroxy-6-hydroxymethyltetrahydro-2H-2-pyranyl)-6,7,12,13-tetrahydro-5H-indolo[2,3-a]pyrrolo[3,4-c]carbazole-5,7-dione] | > 50
10 | O=C1c2c(c3c4cc(O)ccc4n(C4OC(CO)C(O)C(O)C4O)c3c3[nH]c4cc(O)ccc4c23)C(=O)N1NC(CO)CO (stereo not drawn) [2,9-dihydroxy-6-(2-hydroxy-1-hydroxymethylethylamino)-12-(3,4,5-trihydroxy-6-hydroxymethyltetrahydro-2H-2-pyranyl)-6,7,12,13-tetrahydro-5H-indolo[2,3-a]pyrrolo[3,4-c]carbazole-5,7-dione] | > 50
11 | O=C1c2c(c3c4ccc(O)cc4n(C4OC(CO)C(O)C(O)C4O)c3c3[nH]c4ccc(O)cc4c23)C(=O)N1NC(CO)CO (stereo not drawn) [2,9-dihydroxy-6-(2-hydroxy-1-hydroxymethylethylamino)-13-(3,4,5-trihydroxy-6-hydroxymethyltetrahydro-2H-2-pyranyl)-6,7,12,13-tetrahydro-5H-indolo[2,3-a]pyrrolo[3,4-c]carbazole-5,7-dione] | > 50
12 | O=C1c2c(c3c4ccc(O)cc4n(C4OC(CO)C(O)C(O)C4O)c3c3[nH]c4cc(O)ccc4c23)C(=O)N1NC(CO)CO (stereo not drawn) [2,10-dihydroxy-6-(2-hydroxy-1-hydroxymethylethylamino)-12-(3,4,5-trihydroxy-6-hydroxymethyltetrahydro-2H-2-pyranyl)-6,7,12,13-tetrahydro-5H-indolo[2,3-a]pyrrolo[3,4-c]carbazole-5,7-dione] | > 50
13 | O=C1c2c(c3c4ccccc4n(C4OC(CO)C(O)C(O)C4O)c3c3[nH]c4cc(O)ccc4c23)C(=O)N1NC(CO)CO (stereo not drawn) [2-hydroxy-6-(2-hydroxy-1-hydroxymethylethylamino)-12-(3,4,5-trihydroxy-6-hydroxymethyltetrahydro-2H-2-pyranyl)-6,7,12,13-tetrahydro-5H-indolo[2,3-a]pyrrolo[3,4-c]carbazole-5,7-dione] | > 50
14 | O=C1c2c(c3c4ccc(O)cc4n(C4OC(CO)C(O)C(O)C4O)c3c3[nH]c4ccccc4c23)C(=O)N1NC(CO)CO (stereo not drawn) [2-hydroxy-6-(2-hydroxy-1-hydroxymethylethylamino)-13-(3,4,5-trihydroxy-6-hydroxymethyltetrahydro-2H-2-pyranyl)-6,7,12,13-tetrahydro-5H-indolo[2,3-a]pyrrolo[3,4-c]carbazole-5,7-dione] | > 50
15 | O=C1c2c(c3c4cc(O)ccc4n(C4OC(CO)C(O)C(O)C4O)c3c3[nH]c4ccc(O)cc4c23)C(=O)N1NC(CO)CO (stereo not drawn) [3,9-dihydroxy-6-(2-hydroxy-1-hydroxymethylethylamino)-12-(3,4,5-trihydroxy-6-hydroxymethyltetrahydro-2H-2-pyranyl)-6,7,12,13-tetrahydro-5H-indolo[2,3-a]pyrrolo[3,4-c]carbazole-5,7-dione] | > 50
16 | O=C1c2c(c3c4ccccc4n(C4OC(CO)C(O)C(O)C4O)c3c3[nH]c4ccc(O)cc4c23)C(=O)N1NC(CO)CO (stereo not drawn) [3-hydroxy-6-(2-hydroxy-1-hydroxymethylethylamino)-12-(3,4,5-trihydroxy-6-hydroxymethyltetrahydro-2H-2-pyranyl)-6,7,12,13-tetrahydro-5H-indolo[2,3-a]pyrrolo[3,4-c]carbazole-5,7-dione] | > 50
17 | O=C1c2c(c3c4cc(O)ccc4n(C4OC(CO)C(O)C(O)C4O)c3c3[nH]c4ccccc4c23)C(=O)N1NC(CO)CO (stereo not drawn) [3-hydroxy-6-(2-hydroxy-1-hydroxymethylethylamino)-13-(3,4,5-trihydroxy-6-hydroxymethyltetrahydro-2H-2-pyranyl)-6,7,12,13-tetrahydro-5H-indolo[2,3-a]pyrrolo[3,4-c]carbazole-5,7-dione] | > 50
18 | O=C1c2c(c3c4ccccc4n(C4OC(CO)C(O)C(O)C4O)c3c3[nH]c4cccc(O)c4c23)C(=O)N1NC(CO)CO (stereo not drawn) [4-hydroxy-6-(2-hydroxy-1-hydroxymethylethylamino)-12-(3,4,5-trihydroxy-6-hydroxymethyltetrahydro-2H-2-pyranyl)-6,7,12,13-tetrahydro-5H-indolo[2,3-a]pyrrolo[3,4-c]carbazole-5,7-dione] | > 50
